Legend:
[1] = tested on: HCT116 cells (Securin+/+, securin parental cell line HCT116 FB); test: Growth inhibition of securin parental cells (SRB, 5 days); assay type: cell-based; details: Homo sapiens, HCT-116, 120 h
Experimental: (§1) IC50 analysis was performed for selected fused heterobicyclic 2-aryl or 2-heteroarylthiazolyl compounds that were tested on HCT116 cells and Securin “knock out” cell lines.
(§2) Cell Culture—HCT116 and securin “knock out” cells. HCT116 and securin “knock out” cells (D8 and F3) were grown in RPMI+5% fetal bovine serum and gentamycin. They were maintained in a humidified 37° C. incubator with 5% CO2. Since the securin “knock out” cells have active chromosomal instability, cells were used at a low passage number of 2-13 passages. At or before passage 13 a new vial of cells was thawed and used for the screen. Cell seeding—HCT116 cells and securin “knock out” cells were trypsinized and suspenended in RPMI+5% FBS at a density of 27,000 cells/mL. HCT116 and securin “knock out” cells were seeded separately in wells of a 96-well plate (Falcon Cat # 35-3872) at a cell density of 4000 cells per well. Cells were seeded in 150 μL of RPMI media containing 5% FBS and gentamycin. Cell seeding was performed under aseptic conditions. Cells were allowed to attach and grow overnight in a humidified 37° C. incubator.
(§3) Compound Dilution and Dispensation. A series of stock solutions, 10 mg/ml of 2-aryl- or 2-heteroarylthiazolyl compounds to be tested, were brought to room temperature. The compounds were diluted 1:50 in RPMI+5% FBS (Highest concentration 200 μg/mL). The compounds were then serially diluted 1:3 across a deep-well titration plate resulting in final concentrations in the plate of 200, 66.7, 22.2, 7.4, 2.4, 0.8 0.27, 0.091, 0.03, 0.01, and 0.0034 μg/mL with one well left without a compound. 50 μL of this dilution series was added to the 150 μL of cells to result in a final concentration of compound in with the cells of 50, 16.6, 5.5, 1.8, 0.6, 0.2, 0.068, 0.023, 0.0076, 0.0025, and 0.00084 μg/mL. The dilution and addition of compounds to the plates is performed using a Multimek 96 Robot (Beckman Coulter).
(§4) Incubation and analysis. After dosing, the cells in the 96 well plates were returned to the humidified 37° C. incubator. The compounds remained on the cells for 5 days. After 5 days, the cells were fixed to the plates with the addition of 50 μL of 50% (vol/vol) Trichloro Acetic Acid ([…]). The cells were fixed at 4° C. for 1 hour. The plates were washed 5 times in distilled water and allowed to dry. The cells were stained with 0.4% sulforhodamine B (Sigma) in 1% acetic acid. The cells were stained for 15 minutes at room temperature. The plates were then washed 3 times in 1% acetic acid. The plates were dried and the dye was solubilized in 10 mM Tris at pH 8.0. The plates were read on the Absorbence 560 setting on a Victor^2 V Model 1420 Multilabel HTS counter (Perkin Elmer).
(§5) Analysis of Results—IC50 data. Absorbence data was read off of the Victor and was converted to a percentage of the control (untreated) values. IC50 values were graphed and the point at which a 50% inhibition of the control level was determined. […] If the model was not able to determine an IC50, the IC50 was assigned to the lowest concentration that gives a 50% or greater decrease in absorbence compared to control levels. If the calculated IC50 value for a cell line exceeds the top concentration for the assay (typically 50 μg/mL), the assay was scored as >50.

[2] = tested on: xenografts of a human breast carcinoma cell line (MDA-MB-361); test: In-vivo activity in tumor xenografts; details: days 1 through 20
Experimental: Selected fused heterobicyclic 2-aryl- or 2-heteroarylthiazolyl compounds of formula I were tested for their activity in a securin parental cell line (HCT116 FB) and a securin knockout (KO) cell line. […] The in-vivo activity of selected fused heterobicyclic 2-arylarylthiazolyl compounds of formula I was studied in cells growing as xenografts in athymic (nude) mice. The effect of Examples 5-7 and 10 was studied in xenografts of a human breast carcinoma cell line (MDA-MB-361).
In-vivo Activity in Tumor Xenografts. The effectiveness of Examples 5-7 versus Vincristine at controlling tumor growth was studied and the results are summarized in Table 2 and FIG. 1. The 2-arylthiazolyl compounds were formulated 0.5% Methocel™ (methylcellulose) and 0.4% Tween 80™ (polysorbate-80 and oleic acid) and administered daily orally (PO), by gavage or intraperiotenially (IP) by syringe. Tumor mass [(length×width^2)/2] was determined every 7 days. Inhibition of tumor growth was calculated relative to conventional (vehicle treated) controls.

[3] = tested on: securin "knock out" cells F3 (Securin−/−); test: Growth inhibition of securin knock out cells F3 (SRB, 5 days); assay type: cell-based; details: for IC50: 120 h, securin knock out F3 cells, 5 days, SRB; for Selectivity Ratio F3: IC50 HCT116 / IC50 securin KO F3
Experimental: as §1, §2, §3, §4, §5
(§6) Selectivity Ratio. The Selectivity Ratio is the ratio of IC50s between the parent cell line and the knock out cell line and is always a positive number and is typically an integer.

[4] = tested on: securin "knock out" cells D8 (Securin−/−); test: Growth inhibition of securin knock out cells D8 (SRB, 5 days); assay type: cell-based; details: for IC50: 120 h, securin knock out D8 cells, 5 days, SRB; for Selectivity Ratio D8: IC50 HCT116 / IC50 securin KO D8
Experimental: as §1, §2, §3, §4, §5, §6

O[C@H]1CNCc2nc(-c3ccc(N4CCCC4)cc3)sc21 [Example 7, (7S)-2-(4-pyrrolidin-1-yl-phenyl)-4,5,6,7-tetrahydro[1,3]thiazolo[4,5-c]pyridin-7-ol]
IC50 [1]: 36.4 µM
S/T = # of Survivors/# of Treated on Day +21 post tumor staging ([2]; 5 mg/kg/dose PO): 10/10
% T/C Day 7 ([2]; 5 mg/kg/dose PO): 95%
Relative Tumor Growth Day 7 ([2]; 5 mg/kg/dose PO): 1.57
% T/C Day 14 ([2]; 5 mg/kg/dose PO): 86%
Relative Tumor Growth Day 14 ([2]; 5 mg/kg/dose PO): 4.30
% T/C Day 21 ([2]; 5 mg/kg/dose PO): 81%
Relative Tumor Growth Day 21 ([2]; 5 mg/kg/dose PO): 7.45
% T/C Day 7 ([2]; 10 mg/kg/dose PO): 93%
Relative Tumor Growth Day 7 ([2]; 10 mg/kg/dose PO): 1.54
% T/C Day 14 ([2]; 10 mg/kg/dose PO): 113%
Relative Tumor Growth Day 14 ([2]; 10 mg/kg/dose PO): 5.64
% T/C Day 21 ([2]; 10 mg/kg/dose PO): 122%
Relative Tumor Growth Day 21 ([2]; 10 mg/kg/dose PO): 11.17
IC50 [3]: 9.67 µM
Selectivity Ratio F3 [3]: 4
IC50 [4]: 21.6 µM
Selectivity Ratio D8 [4]: 2

O[C@@H]1CNCc2nc(-c3ccc(N4CCCC4)cc3)sc21 [Example 6, (7R)-2-(4-pyrrolidin-1-yl-phenyl)-4,5,6,7-tetrahydro[1,3]thiazolo[4,5-c]pyridin-7-ol]
IC50 [1]: 14.5 µM
S/T = # of Survivors/# of Treated on Day +21 post tumor staging ([2]; 5 mg/kg/dose PO): 9/10
% T/C Day 7 ([2]; 5 mg/kg/dose PO): 88%
Relative Tumor Growth Day 7 ([2]; 5 mg/kg/dose PO): 1.46
% T/C Day 14 ([2]; 5 mg/kg/dose PO): 74%
Relative Tumor Growth Day 14 ([2]; 5 mg/kg/dose PO): 3.72
% T/C Day 21 ([2]; 5 mg/kg/dose PO): 71%
Relative Tumor Growth Day 21 ([2]; 5 mg/kg/dose PO): 6.53
% T/C Day 7 ([2]; 10 mg/kg/dose PO): 106%
Relative Tumor Growth Day 7 ([2]; 10 mg/kg/dose PO): 1.76
% T/C Day 14 ([2]; 10 mg/kg/dose PO): 81%
Relative Tumor Growth Day 14 ([2]; 10 mg/kg/dose PO): 4.06
% T/C Day 21 ([2]; 10 mg/kg/dose PO): 80%
Relative Tumor Growth Day 21 ([2]; 10 mg/kg/dose PO): 7.32
IC50 [3]: 0.429 µM
Selectivity Ratio F3 [3]: 34
IC50 [4]: 0.45 µM
Selectivity Ratio D8 [4]: 32

OC1CNCc2nc(-c3ccc(N4CCCC4)cc3)sc21 [Example 5, (7R,7S)-2-(4-pyrrolidin-1-yl-phenyl)-4,5,6,7-tetrahydro[1,3]thiazolo[4,5-c]pyridin-7-ol]
IC50 [1]: 22.8 µM
% T/C Day 7 ([2]; 10 mg/kg/dose PO): 96%
Relative Tumor Growth Day 7 ([2]; 10 mg/kg/dose PO): 1.59
% T/C Day 14 ([2]; 10 mg/kg/dose PO): 78%
Relative Tumor Growth Day 14 ([2]; 10 mg/kg/dose PO): 3.92
% T/C Day 21 ([2]; 10 mg/kg/dose PO): 86%
Relative Tumor Growth Day 21 ([2]; 10 mg/kg/dose PO): 7.86
IC50 [3]: 0.93 µM
Selectivity Ratio F3 [3]: 25
IC50 [4]: 0.68 µM
Selectivity Ratio D8 [4]: 34

— patent US20090270447A1, “2-Aryl-and 2-Heteroarylthiazolyl Compounds, Methods for Their Preparation and Use Thereof” (Wyeth, priority 2008, published 2009)
